Values quoted from earlier work, collected in US20210128691A1 (priority 2019, published 2021).

Tests used:
[1] = in vivo
cyclic nucleotide PDE = conditions: rats made hypothyroid with increased PDE activity
pre-eclampsia = conditions: dietary supplements, high risk patients

N[C@@H](Cc1cc(I)c(Oc2cc(I)c(O)c(I)c2)c(I)c1)C(=O)O [T4, L-thyroxine]
half-life [1]: 120 to 170 h

N[C@@H](Cc1cc(I)c(Oc2ccc(O)c(I)c2)c(I)c1)C(=O)O [T3, L-tri-iodothyronine]
time to peak levels following ingestion: one to two | rise of serum concentration (amount of drug in circulation) (following ingestion): 250% to 600 | PDE activity after administration (cyclic nucleotide PDE): returned to normal

N=C(N)NCCC[C@H](N)C(=O)O [L-arginine]
incidence of PE (pre-eclampsia): significantly reduce, but not eliminate

CN1CC(=O)N2[C@H](c3ccc4c(c3)OCO4)c3[nH]c4ccccc4c3C[C@@H]2C1=O [tadalafil]
half-life [1]: 17 to 18 h
